From the CheMixHub viscosity set

Assay: xn = mol fraction of the nth substance listed

CCC1CCCCC1 + CCCCCCCCCC(=O)OCC
viscosity [mPa·s], 100 kPa
Conditions | x1 = 0.1001 | x1 = 0.1999 | x1 = 0.3001 | x1 = 0.4 | x1 = 0.5002 | x1 = 0.5998 | x1 = 0.7 | x1 = 0.8 | x1 = 0.9001
293.15 K | 2.153 | 1.979 | 1.807 | 1.642 | 1.487 | 1.342 | 1.204 | 1.079 | 0.96
298.15 K | 1.963 | 1.807 | 1.655 | 1.51 | 1.373 | 1.242 | 1.12 | 1.007 | 0.9
303.15 K | 1.778 | 1.642 | 1.51 | 1.382 | 1.261 | 1.146 | 1.038 | 0.936 | 0.84
308.15 K | 1.626 | 1.503 | 1.384 | 1.271 | 1.165 | 1.063 | 0.966 | 0.873 | 0.786
313.15 K | 1.494 | 1.385 | 1.276 | 1.174 | 1.078 | 0.987 | 0.9 | 0.815 | 0.734
318.15 K | 1.377 | 1.279 | 1.185 | 1.095 | 1.01 | 0.928 | 0.846 | 0.767 | 0.692
323.15 K | 1.27 | 1.184 | 1.102 | 1.021 | 0.943 | 0.867 | 0.793 | 0.722 | 0.652

CC(=O)N(C)C + CN(C)C=O
viscosity [mPa·s], 101 kPa
Conditions | 298.15 K | 308.15 K | 318.15 K
x1 = 0.05 | 0.809 | 0.718 | 0.642
x1 = 0.1062 | 0.816 | 0.724 | 0.647
x1 = 0.15 | 0.822 | 0.729 | 0.652
x1 = 0.2171 | 0.831 | 0.737 | 0.658
x1 = 0.26 | 0.837 | 0.742 | 0.662
x1 = 0.3094 | 0.843 | 0.747 | 0.666
x1 = 0.35 | 0.849 | 0.752 | 0.67
x1 = 0.405 | 0.856 | 0.758 | 0.675
x1 = 0.455 | 0.863 | 0.763 | 0.679
x1 = 0.5042 | 0.87 | 0.769 | 0.684
x1 = 0.55 | 0.876 | 0.774 | 0.688
x1 = 0.6071 | 0.883 | 0.781 | 0.694
x1 = 0.655 | 0.89 | 0.786 | 0.698
x1 = 0.714 | 0.898 | 0.793 | 0.704
x1 = 0.75 | 0.903 | 0.797 | 0.707
x1 = 0.7968 | 0.909 | 0.803 | 0.712
x1 = 0.85 | 0.916 | 0.809 | 0.717
x1 = 0.9112 | 0.925 | 0.816 | 0.723
x1 = 0.95 | 0.93 | 0.82 | 0.727

CC(=O)N1CCOCC1 + CCC(C)O
viscosity [mPa·s], 101 kPa
Conditions | 293.15 K | 303.15 K | 313.15 K | 323.15 K
x1 = 0.0516 | 5.054 | 4.116 | 3.093 | 2.101
x1 = 0.1322 | 6.732 | 5.737 | 4.626 | 3.598
x1 = 0.2217 | 8.167 | 7.11 | 5.901 | 4.833
x1 = 0.2879 | 8.981 | 7.878 | 6.596 | 5.499
x1 = 0.3188 | 9.257 | 8.132 | 6.816 | 5.706
x1 = 0.3996 | 9.785 | 8.603 | 7.199 | 6.052
x1 = 0.4597 | 10.02 | 8.8 | 7.33 | 6.157
x1 = 0.5084 | – | – | 7.42 | –
x1 = 0.5094 | 10.2 | 8.944 | – | 6.225
x1 = 0.5496 | 10.27 | 8.985 | 7.418 | 6.204
x1 = 0.6127 | 10.29 | 8.96 | 7.323 | 6.082
x1 = 0.6444 | 10.11 | 8.757 | 7.086 | 5.83
x1 = 0.6915 | 10.11 | 8.728 | 7.005 | 5.728
x1 = 0.7516 | 9.956 | 8.527 | 6.739 | 5.436
x1 = 0.7984 | 9.588 | 8.127 | 6.288 | 4.964
x1 = 0.8599 | 9.409 | 7.905 | 5.998 | 4.647
x1 = 0.9127 | 8.959 | 7.419 | 5.454 | 4.079
x2 = 0.0157 | 8.843 | 7.252 | 5.209 | 3.918

CC(=O)N(C)C + CCCCCO
viscosity [mPa·s], 100 kPa
Conditions | 298.15 K | 313.15 K
x1 = 0.0569 | 3.02 | 2.057
x1 = 0.1068 | 2.69 | 1.887
x1 = 0.2009 | 2.246 | 1.634
x1 = 0.3051 | 1.92 | 1.419
x1 = 0.4017 | 1.68 | 1.283
x1 = 0.4989 | 1.498 | 1.159
x1 = 0.6011 | 1.358 | 1.065
x1 = 0.7029 | 1.223 | 0.973
x1 = 0.7966 | 1.121 | 0.895
x1 = 0.8962 | 1.041 | 0.833
x1 = 0.9519 | 0.981 | 0.8

CC1CCCCC1=O (configuration not stated) + CN(C)C=O
viscosity [mPa·s], 100 kPa
Conditions | x1 = 0.0825 | x1 = 0.1712 | x1 = 0.2787 | x1 = 0.3863 | x1 = 0.4889 | x1 = 0.5801 | x1 = 0.6819 | x1 = 0.7805 | x1 = 0.8801
303.15 K | 0.889 | 1.027 | 1.192 | 1.353 | 1.505 | 1.638 | 1.783 | 1.921 | 2.06
308.15 K | 0.85 | 0.987 | 1.15 | 1.309 | 1.459 | 1.59 | 1.735 | 1.872 | 2.009
313.15 K | 0.81 | 0.948 | 1.108 | 1.266 | 1.413 | 1.543 | 1.688 | 1.824 | 1.959
